# Measured values taken from PubChem BioAssay AID1918948 (Molecular Pharmacology Branch, DTP, NCI, 2023).
# Tested on: K-562 leukemia growth, % test/control
# Assay: Anticancer human tumor K-562 cell line growth inhibition;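 note: spheroids exposed to compounds for 7 days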;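 for viability, T/C: 100% = DMSO vehicle wells and lower values mean fewer viable cells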
# Conditions: spheroids with HUVEC and MSC; for IC50: curve of first compound; for viability, T/C: stronger effect = lower value
# Text: Multicellular complex tumor spheroid response to LSD1 Inhibitor Iadademstat in combination with a variety of drugs and investigational agents in selected tumor cell lines
# The current study was undertaken to assess response to LSD1 inhibitors in combination with standard-of-care drugs and investigational agents in solid tumor complex spheroid models as well as in the K-562 leukemia. Complex spheroids include a stromal component modeled by human endothelial cells (HUVEC) and fibroblasts modeled by human mesenchymal stem cells (MSCs). The concentration ranges selected for each drug and investigational agent were based upon clinically achievable concentrations if the clinical Cmax of the agent was known.
# Compounds. The drugs and investigational agents used in this study are listed on Table 1. All of the agents used, including staurosporine (NSC755774) and gemcitabine (NSC613327), were obtained from the Developmental Therapeutics Program, NCI. FDA-approved anticancer drugs are available from the NCI at http://dtp.nci.nih.gov/branches/dscb/oncology_drugset_explanation.html. Drugs and investigational agents were >95% pure by proton nuclear magnetic resonance (NMR) and liquid chromatography/mass spectrometry (LC/MS). Stock solutions were prepared at 400x in DMSO, stored at -70 degrees C, and diluted in fresh medium prior to their use. The final concentration of DMSO in cell culture wells never exceeded 0.25% (v/v). The FDA-approved anticancer drug set is available from the Developmental Therapeutics Program at https://dtp.cancer.gov/organization/dscb/obtaining/available_plates.htm. All drugs and investigational agents were tested over a range starting from a high concentration at or near the clinical Cmax and decreasing in half-log increments. If the clinical Cmax for an agent had not been determined, the highest concentration tested was 10 microM.
# Cell Lines. The patient-derived cancer cell (PDC) lines: 292921-168-R-J2-PDC, K24384-001-R-PDC, and 521955-158-R2-J5-PDC pancreatic carcinomas, 556581-035-R-J1 ovarian carcinoma, 324938-238-R-J1-PDC, 855422-203-R-J1-PDC and 883617-216-R-J1-PDC urothelial bladder carcinomas, 743489-274-T-PDC renal cell carcinoma, 138582-R-J1 Merkel cell tumor, K60290-347-R-J1 and K57222-313-R-J1-PDC glioblastomas, 653999-131-R-J2-PDC, LG0703-F948-PDC, and 349418-098-R-PDC non-small cell lung carcinomas, 885512-296-R-J2-PDC, 171881-019-R-J1-PDC breast carcinomas and 186277-243-T-J2-PDC and 233499-124-R-J2-PDC colon carcinomas were obtained from the NCI Patient-Derived Models Repository (PDMR, https://pdmr.cancer.gov). The established cell lines NCI/ADR-RES (RRID:CVCL_14520 and OVCAR-5 (RRID:CVCL_1628) ovarian carcinomas, 786-O (RRID:CVCL_1051) and A498 (RRID:CVCL_A498) renal cell carcinoma, NCI-H211 (ATCC, cat. CRL-5824; RRID:CVCL_1529), NCI-H196 (ATCC, cat. CRL-5823, RRID:CVCL_1509), SW 1271 (ATCC, cat. CRL-2177, RRID:CVCL_1716) and NCI-H1876 (ATCC, cat. CRL-5902, RRID:CVCL_1503) small cell lung carcinomas, MDA-MB-231 (RRID:CVCL_0062) and MDA-MB-468 (RRID:CVCL_0419)breast carcinomas (10-12). Pooled donor human umbilical vein endothelial cells (HUVEC, Lonza, cat. CC-2519) and human mesenchymal stem cells (hMSC, Lonza, cat. PT-2501) were purchased from Lonza (Walkersville, MD).
# Cell Culture. All cells were maintained in an incubator at 37 degrees C and 5% CO2 with 95% humidity. The PDC lines were cultured according to standard operating procedures established by the NCI PDMR (https://pdmr.cancer.gov). Briefly all PDCs were thawed and cultured in Matrigel-coated flasks prepared with a working solution of 1X Ham's F-12 nutrient mix, without supplementation (Invitrogen, Waltham, MA, cat. 11765054), 100 U/mL penicillin-streptomycin (Invitrogen, cat. 15140122), and 2.5% Matrigel (Corning Inc., Corning, NY, cat. 354248) for the first three passages. […]
structure (smiles),measurement,setting,value
Nc1ccccc1NC(=O)c1ccc(CNC(=O)OCc2cccnc2)cc1 + NC1CC1c1ccc(-c2cccc(O)c2)cc1,IC50,second compound 0.1 µM,0.18 µM
same,IC50,second compound 0.316 µM,0.173 µM
same,IC50,second compound 1 µM,0.165 µM
same,IC50,second compound 3.16 µM,0.152 µM
same,IC50,second compound 10 µM,0.121 µM
same,"viability, T/C","second compound 0.1 µM, first compound 0.00949 µM",114%
same,"viability, T/C","second compound 0.1 µM, first compound 0.03 µM",111%
same,"viability, T/C","second compound 0.1 µM, first compound 0.0949 µM",103%
same,"viability, T/C","second compound 0.1 µM, first compound 0.3 µM",7.04%
same,"viability, T/C","second compound 0.1 µM, first compound 0.949 µM",0.24%
same,"viability, T/C","second compound 0.1 µM, first compound 3 µM",1.31%
same,"viability, T/C","second compound 0.316 µM, first compound 0.00949 µM",114%
same,"viability, T/C","second compound 0.316 µM, first compound 0.03 µM",109%
same,"viability, T/C","second compound 0.316 µM, first compound 0.0949 µM",97.1%
same,"viability, T/C","second compound 0.316 µM, first compound 0.3 µM",6.48%
same,"viability, T/C","second compound 0.316 µM, first compound 0.949 µM",0.2%
same,"viability, T/C","second compound 0.316 µM, first compound 3 µM",0.13%
same,"viability, T/C","second compound 1 µM, first compound 0.00949 µM",111%
same,"viability, T/C","second compound 1 µM, first compound 0.03 µM",110%
same,"viability, T/C","second compound 1 µM, first compound 0.0949 µM",92%
same,"viability, T/C","second compound 1 µM, first compound 0.3 µM",5.06%
same,"viability, T/C","second compound 1 µM, first compound 0.949 µM",0.25%
same,"viability, T/C","second compound 1 µM, first compound 3 µM",0.13%
same,"viability, T/C","second compound 3.16 µM, first compound 0.00949 µM",111%
same,"viability, T/C","second compound 3.16 µM, first compound 0.03 µM",111%
same,"viability, T/C","second compound 3.16 µM, first compound 0.0949 µM",81.3%
same,"viability, T/C","second compound 3.16 µM, first compound 0.3 µM",4.61%
same,"viability, T/C","second compound 3.16 µM, first compound 0.949 µM",0.18%
same,"viability, T/C","second compound 3.16 µM, first compound 3 µM",1.02%
same,"viability, T/C","second compound 10 µM, first compound 0.00949 µM",104%
same,"viability, T/C","second compound 10 µM, first compound 0.03 µM",98.5%
same,"viability, T/C","second compound 10 µM, first compound 0.0949 µM",62.6%
same,"viability, T/C","second compound 10 µM, first compound 0.3 µM",3.34%
same,"viability, T/C","second compound 10 µM, first compound 0.949 µM",0.19%
same,"viability, T/C","second compound 10 µM, first compound 3 µM",1.28%
COc1ccc([C@@H](O)c2cc(-c3ncnc4cc(N5CCOCC5)ccc34)c(F)cc2Cl)nn1 + NC1CCC(NC2CC2c2ccccc2)CC1,IC50,second compound 0.1 µM,9.23 µM
same,IC50,second compound 0.316 µM,9.9 µM
same,IC50,second compound 1 µM,> 10 µM
same,IC50,second compound 3.16 µM,9.83 µM
same,IC50,second compound 10 µM,8.18 µM
same,"viability, T/C","second compound 0.1 µM, first compound 0.0316 µM",100%
same,"viability, T/C","second compound 0.1 µM, first compound 0.1 µM",100%
same,"viability, T/C","second compound 0.1 µM, first compound 0.316 µM",101%
same,"viability, T/C","second compound 0.1 µM, first compound 1 µM",103%
same,"viability, T/C","second compound 0.1 µM, first compound 3.16 µM",96.6%
same,"viability, T/C","second compound 0.1 µM, first compound 10 µM",46.5%
same,"viability, T/C","second compound 0.316 µM, first compound 0.0316 µM",101%
same,"viability, T/C","second compound 0.316 µM, first compound 0.1 µM",101%
same,"viability, T/C","second compound 0.316 µM, first compound 0.316 µM",104%
same,"viability, T/C","second compound 0.316 µM, first compound 1 µM",106%
same,"viability, T/C","second compound 0.316 µM, first compound 3.16 µM",98.2%
same,"viability, T/C","second compound 0.316 µM, first compound 10 µM",49.5%
same,"viability, T/C","second compound 1 µM, first compound 0.0316 µM",105%
same,"viability, T/C","second compound 1 µM, first compound 0.1 µM",103%
same,"viability, T/C","second compound 1 µM, first compound 0.316 µM",105%
same,"viability, T/C","second compound 1 µM, first compound 1 µM",105%
same,"viability, T/C","second compound 1 µM, first compound 3.16 µM",98.2%
same,"viability, T/C","second compound 1 µM, first compound 10 µM",51.8%
same,"viability, T/C","second compound 3.16 µM, first compound 0.0316 µM",101%
same,"viability, T/C","second compound 3.16 µM, first compound 0.1 µM",102%
same,"viability, T/C","second compound 3.16 µM, first compound 0.316 µM",103%
same,"viability, T/C","second compound 3.16 µM, first compound 1 µM",104%
same,"viability, T/C","second compound 3.16 µM, first compound 3.16 µM",97.4%
same,"viability, T/C","second compound 3.16 µM, first compound 10 µM",49.2%
same,"viability, T/C","second compound 10 µM, first compound 0.0316 µM",99.5%
same,"viability, T/C","second compound 10 µM, first compound 0.1 µM",101%
same,"viability, T/C","second compound 10 µM, first compound 0.316 µM",101%
same,"viability, T/C","second compound 10 µM, first compound 1 µM",98.2%
same,"viability, T/C","second compound 10 µM, first compound 3.16 µM",91.8%
same,"viability, T/C","second compound 10 µM, first compound 10 µM",41%
